Our source for the IC50 values is patent US12643887B2, “Heterocyclic derivatives with cardiomyocyte proliferation activity for treatment of heart diseases” (Tongji University, priority 2019, dated 2026).

One test has as its target T1, human CIT (Homo sapiens, UniProt O14578).
T1 construct: Recombinant human CIT (1-499); GST (N); purchased SignalChem C52-11G; host or cells: Sf9 insect cells
In words: CIT enzyme assay (ADP-Glo). The format is biochemical. To be noted: ADP-Glo, ATP 5 μM; read-out: CIT IC50. How it is done:
The ability of compounds to inhibit human CIT kinase activities was determined using a commercially available ADP-Glo™ Kinase Assay kit (Promega, Cat #V9102) according to the manufacturer's protocol.
(§1) Recombinant human CIT (1-499) (expressed in Sf9 insect cells with an N-terminal GST tag) was purchased from SignalChem (Cat #C52-11G). Recombinant full length human MBP (expressed in E. Coli cells with an N-terminal GST tag) was purchased from SignalChem (Cat #M42-54G). This assay, run in a 384-well plate format, is a generic method for measuring kinase activities using an ADP-Glo Kinase Assay Kit. The basic assay procedure involves two steps: (1) Enzymatic step: inhibitors are incubated with the kinase and then ATP (included in the ADP-Glo Kinase Assay Kit) and the MBP protein are added to start the enzymatic reaction; (2) Detection step: after the kinase reaction, first ADP-Glo™ Reagent is added to terminate the kinase reaction and deplete the remaining ATP. Second, the Kinase Detection Reagent is added to simultaneously convert ADP to ATP and allow the newly synthesized ATP to be measured using a luciferase/luciferin reaction. The light generated is measured using a luminometer.
Briefly, CIT (20 nM) in the enzymatic buffer solutions (40 mM Tris, pH 7.5, 20 mM MgCl2, 0.1 mg/ml BSA, 50 μM DTT) were mixed with various concentrations of inhibitors (dissolved in 100% DMSO). These solutions were incubated for 30 minutes at 25° C., and subsequently a mixture of substrate peptide and ATP was added with the final peptide and ATP concentrations at 0.05 mg/ml and 5 μM, respectively. The final reaction mixture of enzyme-substrate-ATP-compound was incubated for 90 minutes at 25° C.
(§2) Afterwards ADP-Glo™ Reagent was added and the mixture was incubated at 25° C. for 60 minutes. Then Kinase Detection Reagent was added, and the final mixture was incubated at 25° C. for 60 minutes. The luminescence signal of the final solution was measured on an Envision instrument (PerkinElmer). The percent (%) inhibition at each concentration of a compound is calculated relative to the luminescence signal in the Max and Min control wells contained within each assay plate. […] The concentrations and percent inhibition values for a test compound are plotted and the concentration of the compound required to achieve 50% inhibition (IC50) is determined with a four-parameter logistic dose response equation.
On the technique in general: ADP-Glo first removes unused ATP, then detects ADP through luciferase.

The next test has as its target T2, human CK2a2 (CSNK2a2) (Homo sapiens, UniProt P19784).
T2 construct: Recombinant human CK2a2 (CSNK2a2) (full length); GST (N); purchased SignalChem C71-10G; host or cells: Sf9 insect cells
In words: CK2a2 (CSNK2a2) enzyme assay (ADP-Glo). The format is biochemical. The following applies: ADP-Glo, ATP 15 μM; read-out: CK2 alpha 2 IC50. How it is done: 8. CK2a2 (CSNK2a2) Enzyme Assay
The ability of compounds to inhibit human CK2a2 (CSNK2a2) kinase activities was determined using a commercially available ADP-Glo™ Kinase Assay kit (Promega, Cat #V9102) according to the manufacturer's protocol.
as §1, with “CK2a2 (CSNK2a2) (full length)” for “CIT (1-499)”, “#C71-10G). CK2 substrate (sequence: […])” for “#C52-11G). Recombinant full length human MBP (expressed in E. Coli cells with an N-terminal GST tag)”, “#C08-58).” for “#M42-54G).”
Briefly, CK2a2 (CSNK2a2) (7 nM) in the enzymatic buffer solutions (40 mM Tris, pH 7.5, 20 mM MgCl2, 0.1 mg/ml BSA, 50 μM DTT) were mixed with various concentrations of inhibitors (dissolved in 100% DMSO). These solutions were incubated for 30 minutes at 25° C., and subsequently a mixture of substrate peptide and ATP was added with the final peptide and ATP concentrations at 0.04 mg/ml and 15 μM, respectively. The final reaction mixture of enzyme-substrate-ATP-compound was incubated for 90 minutes at 25° C.
as §2

T2 sequence (P19784 whole entry): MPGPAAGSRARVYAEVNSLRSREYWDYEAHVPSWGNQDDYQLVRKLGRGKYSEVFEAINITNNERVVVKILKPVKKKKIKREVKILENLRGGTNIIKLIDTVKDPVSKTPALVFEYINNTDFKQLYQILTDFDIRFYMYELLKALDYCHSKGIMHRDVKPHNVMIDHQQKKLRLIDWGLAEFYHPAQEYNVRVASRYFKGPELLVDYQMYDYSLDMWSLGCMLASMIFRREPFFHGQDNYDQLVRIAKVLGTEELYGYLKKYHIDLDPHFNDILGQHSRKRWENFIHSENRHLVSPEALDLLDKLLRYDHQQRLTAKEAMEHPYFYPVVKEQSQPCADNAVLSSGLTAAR
T1 sequence (O14578 1-499): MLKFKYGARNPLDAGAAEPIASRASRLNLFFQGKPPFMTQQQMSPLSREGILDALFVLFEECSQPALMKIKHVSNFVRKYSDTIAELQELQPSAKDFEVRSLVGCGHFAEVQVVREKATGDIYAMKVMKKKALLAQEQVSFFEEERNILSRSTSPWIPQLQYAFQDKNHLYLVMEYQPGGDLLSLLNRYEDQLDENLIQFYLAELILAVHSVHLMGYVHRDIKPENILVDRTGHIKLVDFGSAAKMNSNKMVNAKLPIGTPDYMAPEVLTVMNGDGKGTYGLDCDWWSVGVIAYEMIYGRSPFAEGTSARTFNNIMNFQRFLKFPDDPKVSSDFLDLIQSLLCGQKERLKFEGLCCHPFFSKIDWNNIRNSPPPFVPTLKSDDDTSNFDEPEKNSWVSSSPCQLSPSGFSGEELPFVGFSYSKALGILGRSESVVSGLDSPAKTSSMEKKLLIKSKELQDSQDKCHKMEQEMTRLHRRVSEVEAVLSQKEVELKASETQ

`CN(Cc1ccccc1)C1=N/C(=C\c2ccc3c(c2)OCO3)C(=O)N1` [Example 23, (Z)-5-(benzo[d][1,3]dioxol-5-ylmethylene)-2-(benzyl(methyl)amino)-3,5-dihydro-4H-imidazol-4-one]: the concentration for half-maximal inhibition (IC50) at human CIT and at human CK2a2 (CSNK2a2) was over 10 µM in each case.

Consider `Cn1cnc2ccc(/C=C3\N=C(Nc4ccccc4)NC3=O)cc21` [Example 46, (Z)-5-((1-methyl-1H-benzo[d]imidazol-6-yl)methylene)-2-(phenylamino)-3,5-dihydro-4H-imidazol-4-one], for which the concentration for half-maximal inhibition (IC50) (usually the concentration at which inhibition is half-maximal) on human CIT was 0.1 to 1 µM; on human CK2a2 (CSNK2a2), under 0.1 µM.
